From the NIST ThermoML archive (doi:10.1016/j.jct.2017.02.023)

Legend:
[1] = xn = mol fraction of the nth substance listed; details: 81.5 kPa, Liquid, Vibrating tube method
[2] = refractive index (Na D-line) (dimensionless); xn = mol fraction of the nth substance listed; details: 81.5 kPa, Liquid, Standard Abbe refractometry

CNC1CCCCC1 [N-methylcyclohexylamine] + CCCCCC(C)O
Details | mass density, 298.15 K [kg/m3] | mass density, 308.15 K [kg/m3] | mass density, 318.15 K [kg/m3] | mass density, 328.15 K [kg/m3] | refractive index, 298.15 K | refractive index, 308.15 K | refractive index, 318.15 K | refractive index, 328.15 K
[1], x2 = 0 | 865.2 | 856.57 | 847.67 | 838.68 | – | – | – | –
[1], x2 = 0.0812 | 861.21 | 852.71 | 843.93 | 835.06 | – | – | – | –
[1], x2 = 0.1624 | 857.38 | 848.98 | 840.27 | 831.44 | – | – | – | –
[1], x2 = 0.2448 | 853.62 | 845.28 | 836.62 | 827.83 | – | – | – | –
[1], x2 = 0.3273 | 849.83 | 841.57 | 832.96 | 824.22 | – | – | – | –
[1], x2 = 0.4098 | 845.9 | 837.7 | 829.15 | 820.48 | – | – | – | –
[1], x2 = 0.486 | 842.05 | 833.91 | 825.44 | 816.83 | – | – | – | –
[1], x2 = 0.5764 | 837.18 | 829.14 | 820.75 | 812.23 | – | – | – | –
[1], x2 = 0.6517 | 832.93 | 824.98 | 816.67 | 808.22 | – | – | – | –
[1], x2 = 0.7435 | 827.66 | 819.81 | 811.59 | 803.21 | – | – | – | –
[1], x2 = 0.8282 | 822.84 | 815.09 | 806.94 | 798.61 | – | – | – | –
[1], x2 = 0.9132 | 818.13 | 810.46 | 802.36 | 794.07 | – | – | – | –
[2], x2 = 0 | – | – | – | – | 1.45306 | 1.44812 | 1.4431 | 1.43809
[2], x2 = 0.0812 | – | – | – | – | 1.45091 | 1.44613 | 1.44128 | 1.43645
[2], x2 = 0.1624 | – | – | – | – | 1.44856 | 1.44387 | 1.4391 | 1.43432
[2], x2 = 0.2448 | – | – | – | – | 1.44622 | 1.44158 | 1.43686 | 1.43214
[2], x2 = 0.3273 | – | – | – | – | 1.44391 | 1.43933 | 1.43466 | 1.42997
[2], x2 = 0.4098 | – | – | – | – | 1.44151 | 1.43699 | 1.43236 | 1.42773
[2], x2 = 0.486 | – | – | – | – | 1.43911 | 1.43464 | 1.43007 | 1.4255
[2], x2 = 0.5764 | – | – | – | – | 1.43598 | 1.43158 | 1.42708 | 1.42258
[2], x2 = 0.6517 | – | – | – | – | 1.43316 | 1.42882 | 1.42438 | 1.41996
[2], x2 = 0.7435 | – | – | – | – | 1.42959 | 1.42534 | 1.421 | 1.41664
[2], x2 = 0.8282 | – | – | – | – | 1.42631 | 1.42213 | 1.41786 | 1.41356
[2], x2 = 0.9132 | – | – | – | – | 1.423 | 1.41886 | 1.41462 | 1.41037

CNC1CCCCC1 [N-methylcyclohexylamine] + CCCCC(C)O
Details | mass density, 298.15 K [kg/m3] | mass density, 308.15 K [kg/m3] | mass density, 318.15 K [kg/m3] | mass density, 328.15 K [kg/m3] | refractive index, 298.15 K | refractive index, 308.15 K | refractive index, 318.15 K | refractive index, 328.15 K
[1], x2 = 0 | 865.2 | 856.57 | 847.67 | 838.68 | – | – | – | –
[1], x2 = 0.0915 | 861.23 | 852.73 | 843.97 | 835.05 | – | – | – | –
[1], x2 = 0.1814 | 857.43 | 848.96 | 840.23 | 831.33 | – | – | – | –
[1], x2 = 0.2693 | 853.71 | 845.27 | 836.53 | 827.62 | – | – | – | –
[1], x2 = 0.3559 | 849.84 | 841.4 | 832.77 | 823.77 | – | – | – | –
[1], x2 = 0.44 | 845.7 | 837.27 | 828.7 | 819.71 | – | – | – | –
[1], x2 = 0.5256 | 841.05 | 832.6 | 824.08 | 815.12 | – | – | – | –
[1], x2 = 0.608 | 836.06 | 827.68 | 819.22 | 810.28 | – | – | – | –
[1], x2 = 0.6858 | 831.06 | 822.74 | 814.31 | 805.47 | – | – | – | –
[1], x2 = 0.7668 | 825.76 | 817.47 | 809.16 | 800.26 | – | – | – | –
[1], x2 = 0.8463 | 820.48 | 812.27 | 804.01 | 795.06 | – | – | – | –
[1], x2 = 0.9235 | 815.36 | 807.2 | 798.91 | 789.93 | – | – | – | –
[2], x2 = 0 | – | – | – | – | 1.45306 | 1.44812 | 1.4431 | 1.43809
[2], x2 = 0.0915 | – | – | – | – | 1.45049 | 1.44581 | 1.44104 | 1.43628
[2], x2 = 0.1814 | – | – | – | – | 1.4477 | 1.44305 | 1.43835 | 1.43364
[2], x2 = 0.2693 | – | – | – | – | 1.445 | 1.44038 | 1.43572 | 1.43103
[2], x2 = 0.3559 | – | – | – | – | 1.44229 | 1.4377 | 1.43309 | 1.42844
[2], x2 = 0.44 | – | – | – | – | 1.43938 | 1.43484 | 1.43029 | 1.42569
[2], x2 = 0.5256 | – | – | – | – | 1.43598 | 1.43151 | 1.42702 | 1.42247
[2], x2 = 0.608 | – | – | – | – | 1.43233 | 1.42789 | 1.42346 | 1.41895
[2], x2 = 0.6858 | – | – | – | – | 1.42866 | 1.42425 | 1.41985 | 1.41537
[2], x2 = 0.7668 | – | – | – | – | 1.42478 | 1.42041 | 1.41606 | 1.41162
[2], x2 = 0.8463 | – | – | – | – | 1.42103 | 1.4167 | 1.4124 | 1.40799
[2], x2 = 0.9235 | – | – | – | – | 1.41731 | 1.41299 | 1.4087 | 1.40428

CNC1CCCCC1 [N-methylcyclohexylamine] + CCCCCCC(C)O
Details | mass density, 298.15 K [kg/m3] | mass density, 308.15 K [kg/m3] | mass density, 318.15 K [kg/m3] | mass density, 328.15 K [kg/m3] | refractive index, 298.15 K | refractive index, 308.15 K | refractive index, 318.15 K | refractive index, 328.15 K
[1], x2 = 0 | 865.2 | 856.57 | 847.67 | 838.68 | – | – | – | –
[1], x2 = 0.0727 | 861.37 | 852.86 | 844.07 | 835.18 | – | – | – | –
[1], x2 = 0.148 | 857.59 | 849.18 | 840.45 | 831.62 | – | – | – | –
[1], x2 = 0.2246 | 853.95 | 845.6 | 836.92 | 828.14 | – | – | – | –
[1], x2 = 0.3025 | 850.34 | 842.06 | 833.44 | 824.7 | – | – | – | –
[1], x2 = 0.3826 | 846.62 | 838.42 | 829.86 | 821.17 | – | – | – | –
[1], x2 = 0.4636 | 842.77 | 834.65 | 826.15 | 817.53 | – | – | – | –
[1], x2 = 0.5484 | 838.61 | 830.58 | 822.16 | 813.61 | – | – | – | –
[1], x2 = 0.6332 | 834.36 | 826.43 | 818.08 | 809.6 | – | – | – | –
[1], x2 = 0.7205 | 829.99 | 822.17 | 813.9 | 805.49 | – | – | – | –
[1], x2 = 0.8128 | 825.54 | 817.82 | 809.62 | 801.27 | – | – | – | –
[1], x2 = 0.9052 | 821.3 | 813.66 | 805.52 | 797.23 | – | – | – | –
[2], x2 = 0 | – | – | – | – | 1.45306 | 1.44812 | 1.4431 | 1.43809
[2], x2 = 0.0727 | – | – | – | – | 1.45123 | 1.44643 | 1.44156 | 1.43676
[2], x2 = 0.148 | – | – | – | – | 1.44931 | 1.44459 | 1.43978 | 1.43507
[2], x2 = 0.2246 | – | – | – | – | 1.44739 | 1.44272 | 1.43794 | 1.43327
[2], x2 = 0.3025 | – | – | – | – | 1.44545 | 1.44084 | 1.43612 | 1.43148
[2], x2 = 0.3826 | – | – | – | – | 1.44348 | 1.43892 | 1.43425 | 1.42963
[2], x2 = 0.4636 | – | – | – | – | 1.44143 | 1.43692 | 1.43233 | 1.42778
[2], x2 = 0.5484 | – | – | – | – | 1.43898 | 1.43456 | 1.43003 | 1.42554
[2], x2 = 0.6332 | – | – | – | – | 1.43641 | 1.43207 | 1.42763 | 1.42323
[2], x2 = 0.7205 | – | – | – | – | 1.4337 | 1.42942 | 1.42503 | 1.42073
[2], x2 = 0.8128 | – | – | – | – | 1.43079 | 1.42658 | 1.42227 | 1.41802
[2], x2 = 0.9052 | – | – | – | – | 1.42779 | 1.42366 | 1.41941 | 1.41523
